# Experimental data reported in patent publication US12336981B2, “Compounds and compositions for the inhibition of NAMPT” (Valo Health, Inc., priority 2010, dated 2025).
# Like-named read-outs stand apart in the source and are kept apart here.
# How the values were obtained:
# A2780 cells = experiment: In-vitro cell proliferation assay (SRB), A2780 cells; assay type: cell-based; settings: Homo sapiens, A2780, 72 h, A2780 cells, 72 hours, read-out: A2780 IC50
# Outline: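 Read-out is SRB absorbance at 570 nm on TCA-fixed cells after 72 hours of compound treatment at 37° C. in 5% CO2. Background from a media-only plate is subtracted, and % inhibition is interpolated between two tested concentrations.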
# NAMPT = biological target: T1, NAMPT (Homo sapiens, UniProt P43490); experiment: Biochemical inhibition assay: NAMPT enzymatic reaction, NMN quantified by mass spectrometry; settings: read-out: Biochem IC50
# T1 construct: His tag; host or cells: E. coli
# Outline: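 Inhibition of E. coli-expressed His-tagged human NAMPT, measured as NMN formation by mass spectrometry after a 30 min room-temperature reaction containing 1 μM NAM, 100 μM PRPP and 2.5 mM ATP.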
# T1 sequence (P43490 whole entry): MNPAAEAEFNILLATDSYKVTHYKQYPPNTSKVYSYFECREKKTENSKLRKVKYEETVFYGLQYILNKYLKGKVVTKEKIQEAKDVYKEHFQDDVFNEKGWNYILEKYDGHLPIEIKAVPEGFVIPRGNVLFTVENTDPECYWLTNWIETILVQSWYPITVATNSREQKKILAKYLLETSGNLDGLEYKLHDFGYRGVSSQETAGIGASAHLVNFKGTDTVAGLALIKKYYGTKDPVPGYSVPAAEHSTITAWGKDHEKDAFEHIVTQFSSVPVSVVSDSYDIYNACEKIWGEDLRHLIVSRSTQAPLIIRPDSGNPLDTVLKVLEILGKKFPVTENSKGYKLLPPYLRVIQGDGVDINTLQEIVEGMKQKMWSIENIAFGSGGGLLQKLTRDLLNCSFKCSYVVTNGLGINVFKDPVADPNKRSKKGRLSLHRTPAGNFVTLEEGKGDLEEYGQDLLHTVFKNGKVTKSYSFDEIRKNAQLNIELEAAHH
SMILES,IC50 (A2780 cells; SRB assay),IC50 (NAMPT; NAMPT enzymatic reaction),IC50 (A2780 cells; SRB),IC50 (NAMPT; NAMPT enzymatic assay)
"Cc1cccc(S(=O)(=O)c2ccc(CNC(=O)c3cc4cnccc4[nH]3)cc2)c1 [N-({4-[(3-methylbenzene)sulfonyl]phenyl}methyl)-1H-pyrrolo[3,2-c]pyridine-2-carboxamide]",4 nM,9 nM,–,–
"COc1cccc(S(=O)(=O)c2ccc(CNC(=O)c3ccc4nccn4c3)cc2)c1 [N-({4-[(3-methoxybenzene)sulfonyl]phenyl}methyl)imidazo[1,2-a]pyridine-6-carboxamide]",–,4.97 nM,2.45 nM,–
"Cn1ncc2ccc(S(=O)(=O)c3ccc(CNC(=O)c4ccc5nccn5c4)cc3)cc21 [N-{[4-(1-methyl-1H-indazole-6-sulfonyl)phenyl]methyl}imidazo[1,2-a]pyridine-6-carboxamide]",–,–,3.9 nM,5 nM
COc1ccc(S(=O)(=O)c2ccc(CNC(=O)c3cc4cnccc4[nH]3)cc2)cc1Cl,–,10.7 nM,2.1 nM,–
COc1ccc(S(=O)(=O)c2ccc(CNC(=O)c3cnc4nccn4c3)cc2)cc1Cl,–,1.8 nM,1.8 nM,–
"Cc1cc(-n2cccn2)ccc1S(=O)(=O)c1ccc(CNC(=O)c2cc3cnccc3[nH]2)cc1 [N-[(4-{[2-methyl-4-(1H-pyrazol-1-yl)benzene]sulfonyl}phenyl)methyl]-1H-pyrrolo[3,2-c]pyridine-2-carboxamide]",4 nM,4 nM,–,–
"COc1cc(-n2cccn2)ccc1S(=O)(=O)c1ccc(CNC(=O)c2cc3ccncc3s2)cc1 [N-[(4-{[2-methoxy-4-(1H-pyrazol-1-yl)benzene]sulfonyl}phenyl)methyl]thieno[2,3-c]pyridine-2-carboxamide]",2.6 nM,5 nM,–,–
"CCOc1ccccc1S(=O)(=O)c1ccc(CNC(=O)c2cc3ccncc3s2)cc1 [N-({4-[(2-ethoxybenzene)sulfonyl]phenyl}methyl)thieno[2,3-c]pyridine-2-carboxamide]",0.8 nM,2 nM,–,–
CS(=O)(=O)c1cccc(S(=O)(=O)c2ccc(CNC(=O)c3cc4ccncc4o3)cc2)c1,–,6 nM,6.8 nM,–
"Cn1ncc2c(S(=O)(=O)c3ccc(CNC(=O)c4cc5ccncc5s4)cc3)cccc21 [N-{[4-(1-methyl-1H-indazole-4-sulfonyl)phenyl]methyl}thieno[2,3-c]pyridine-2-carboxamide]",–,–,0.8 nM,1.1 nM
O=C(NCc1ccc(S(=O)(=O)c2ccccc2CN2CCOCC2)cc1)c1cnc2[nH]ncc2c1,–,–,46.5 nM,69.4 nM
"Cn1cc2ccc(S(=O)(=O)c3ccc(CNC(=O)c4cc5ccncc5s4)cc3)cc2n1 [N-{[4-(2-methyl-2H-indazole-6-sulfonyl)phenyl]methyl}thieno[2,3-c]pyridine-2-carboxamide]",–,–,1.5 nM,1.4 nM
CC(C)c1ccc(S(=O)(=O)c2ccc(CNC(=O)c3cnc4nccn4c3)cc2)cc1,–,–,8.1 nM,1.7 nM
"CCCCc1ccc(S(=O)(=O)c2ccc(CNC(=O)c3cc4ccncc4o3)cc2)cc1 [N-({4-[(4-butylbenzene)sulfonyl]phenyl}methyl)furo[2,3-c]pyridine-2-carboxamide]",–,18.1 nM,26.5 nM,–
CCCOc1ccc(S(=O)(=O)c2ccc(CNC(=O)c3cnc4[nH]ncc4c3)cc2)c(C)c1,–,64.4 nM,79.4 nM,–
Cc1c(Cl)cccc1S(=O)(=O)c1ccc(CNC(=O)c2cnc3nccn3c2)cc1,–,4.3 nM,26.5 nM,–
CC(C)Oc1cccc(S(=O)(=O)c2ccc(CNC(=O)c3cnc4nccn4c3)cc2)c1,–,–,10.5 nM,2.3 nM
COc1cc(C)cc(OC)c1S(=O)(=O)c1ccc(CNC(=O)c2cnc3[nH]ncc3c2)cc1,–,100 to 1000 nM,100 to 1000 nM,–
O=C(NCc1ccc(S(=O)(=O)c2ccc(-n3cccn3)cc2F)cc1)c1cnc2nccn2c1,–,–,19 nM,2.2 nM
"N#Cc1cccc(S(=O)(=O)c2ccc(CNC(=O)c3cc4ccncc4o3)cc2)c1 [N-({4-[(3-cyanobenzene)sulfonyl]phenyl}methyl)furo[2,3-c]pyridine-2-carboxamide]",–,15.4 nM,12.6 nM,–
"COc1ccc(S(=O)(=O)c2ccc(CNC(=O)c3ccc4nccn4c3)cc2)cc1F [N-({4-[(3-fluoro-4-methoxybenzene)sulfonyl]phenyl}methyl)imidazo[1,2-a]pyridine-6-carboxamide]",–,5.95 nM,2.89 nM,–
"O=C(NCc1ccc(S(=O)(=O)c2cncc3ccccc23)cc1)c1cc2ccncc2o1 [N-{[4-(isoquinoline-4-sulfonyl)phenyl]methyl}furo[2,3-c]pyridine-2-carboxamide]",–,–,3 nM,19 nM
O=C(NCc1ccc(S(=O)(=O)c2c(F)cccc2Cl)cc1)c1cc2cnccc2[nH]1,–,114 nM,37.1 nM,–

SMILES,IC50 (A2780 cells; SRB assay),IC50 (NAMPT; NAMPT enzymatic reaction),IC50 (A2780 cells; SRB),IC50 (NAMPT; NAMPT enzymatic assay)
O=C(NCc1ccc(S(=O)(=O)c2cccc(N3CCCC3)c2)cc1)c1cc2ccncc2o1,–,–,7.4 nM,8.2 nM
"COc1cccc(S(=O)(=O)c2ccc(CNC(=O)c3cnc4[nH]ncc4c3)cc2)c1OC [N-({4-[(2,3-dimethoxybenzene)sulfonyl]phenyl}methyl)-1H-pyrazolo[3,4-b]pyridine-5-carboxamide]",–,123 nM,83.3 nM,–
"Cc1cc(C(F)(F)F)ccc1S(=O)(=O)c1ccc(CNC(=O)c2cnc3[nH]ncc3c2)cc1 [N-[(4-{[2-methyl-4-(trifluoromethyl)benzene]sulfonyl}phenyl)methyl]-1H-pyrazolo[3,4-b]pyridine-5-carboxamide]",–,–,74.6 nM,100 to 1000 nM
COc1ccc(S(=O)(=O)c2ccc(CNC(=O)c3cnc4nccn4c3)cc2)c(C(F)(F)F)c1,–,–,65.7 nM,7 nM
CC(C)c1cccc(S(=O)(=O)c2ccc(CNC(=O)c3cc4ccncc4o3)cc2)c1,–,–,7 nM,4.5 nM
"CN(C)C(=O)c1ccccc1S(=O)(=O)c1ccc(CNC(=O)c2cc3cnccc3[nH]2)cc1 [N-[(4-{[2-(dimethylcarbamoyl)benzene]sulfonyl}phenyl)methyl]-1H-pyrrolo[3,2-c]pyridine-2-carboxamide]",484 nM,951 nM,100 to 1000 nM,100 to 1000 nM
Cc1cc(F)cc(S(=O)(=O)c2ccc(CNC(=O)c3cc4ccncc4s3)cc2)c1,–,1 nM,0.6 nM,–
"COc1cc(C)cc(S(=O)(=O)c2ccc(CNC(=O)c3cc4ccncc4s3)cc2)c1OC [N-({4-[(2,3-dimethoxy-5-methylbenzene)sulfonyl]phenyl}methyl)thieno[2,3-c]pyridine-2-carboxamide]",–,–,2.7 nM,6 nM
Cc1ccc(S(=O)(=O)c2ccc(CNC(=O)c3cc4ccncc4s3)cc2)cc1Cl,–,5.1 nM,1 nM,–
"O=C(NCc1ccc(S(=O)(=O)c2cccc3c2OCC3)cc1)c1cnc2nccn2c1 [N-{[4-(2,3-dihydro-1-benzofuran-7-sulfonyl)phenyl]methyl}imidazo[1,2-a]pyrimidine-6-carboxamide]",–,–,25.8 nM,2.1 nM
CCCOc1ccc(S(=O)(=O)c2ccc(CNC(=O)c3cc4cnccc4[nH]3)cc2)cc1F,–,30.9 nM,10.4 nM,–
"O=C(NCc1ccc(S(=O)(=O)c2cnc3ccccc3c2)cc1)c1cc2ccncc2s1 [N-{[4-(quinoline-3-sulfonyl)phenyl]methyl}thieno[2,3-c]pyridine-2-carboxamide]",0.8 nM,3 nM,0.9 nM,4.4 nM
"Cc1ccc(C)c(S(=O)(=O)c2ccc(CNC(=O)c3ccc4nccn4c3)cc2)c1 [N-({4-[(2,5-dimethylbenzene)sulfonyl]phenyl}methyl)imidazo[1,2-a]pyridine-6-carboxamide]",–,29.3 nM,15.4 nM,–
"O=C(NCc1ccc(S(=O)(=O)c2csc(-c3cccc(F)c3)n2)cc1)c1cc2ccncc2o1 [N-({4-[2-(3-fluorophenyl)-1,3-thiazole-4-sulfonyl]phenyl}methyl)furo[2,3-c]pyridine-2-carboxamide]",–,–,50.4 nM,11.9 nM
CCOc1cc(Cl)ccc1S(=O)(=O)c1ccc(CNC(=O)c2cc3ccncc3s2)cc1,–,2.4 nM,< 0.4 nM,–
Cc1cc(C)n(-c2cccc(S(=O)(=O)c3ccc(CNC(=O)c4ccc5ncsc5c4)cc3)c2)n1,–,–,100 to 1000 nM,17.9 nM
O=C(NCc1ccc(S(=O)(=O)c2ccc(Cl)c(F)c2)cc1)c1cnc2nccn2c1,–,1.9 nM,8.9 nM,–
"O=C(NCc1ccc(S(=O)(=O)c2cccc(C(F)(F)F)c2)cc1)c1cc2ccncc2s1 [N-[(4-{[3-(trifluoromethyl)benzene]sulfonyl}phenyl)methyl]thieno[2,3-c]pyridine-2-carboxamide]",1 nM,3 nM,–,–
"Cc1cccc(S(=O)(=O)c2ccc(CNC(=O)c3cc4ccncc4s3)cc2)c1 [N-({4-[(3-methylbenzene)sulfonyl]phenyl}methyl)thieno[2,3-c]pyridine-2-carboxamide]",2.3 nM,4 nM,–,–
"O=C(NCc1ccc(S(=O)(=O)c2cnn(-c3cccc(Cl)c3)c2)cc1)c1cnc2nccn2c1 [N-({4-[1-(3-chlorophenyl)-1H-pyrazole-4-sulfonyl]phenyl}methyl)imidazo[1,2-a]pyrimidine-6-carboxamide]",–,–,11.5 nM,2.2 nM
"CC(=O)c1ccccc1NS(=O)(=O)c1ccc(CNC(=O)c2cc3cnccc3[nH]2)cc1 [N-({4-[(2-acetylphenyl)sulfamoyl]phenyl}methyl)-1H-pyrrolo[3,2-c]pyridine-2-carboxamide]",5 nM,5 nM,–,–
"CCCOc1ccc(S(=O)(=O)c2ccc(CNC(=O)c3cnc4[nH]ncc4c3)cc2)cc1F [N-({4-[(3-fluoro-4-propoxybenzene)sulfonyl]phenyl}methyl)-1H-pyrazolo[3,4-b]pyridine-5-carboxamide]",–,11.6 nM,6.5 nM,–
N#Cc1cccc(S(=O)(=O)c2ccc(CNC(=O)c3cc4cnccc4[nH]3)cc2)c1,–,12.1 nM,11.3 nM,–
